Data: US11352352B2, “Aminopyrimidine compound, preparation method therefor and use thereof” (BEIJING ADAMADLE BIOTECHNOLOGY LIMITED LIABILITY COMPANY, priority 2017, dated 2022)

Legend:
[1] = tested on: NCI-H1975; assay: Cell proliferation inhibition experiment, CellTiter-Glo (CTG) method; type: cell-based; conditions: for IC50: Homo sapiens, NCI-H1975, 72 h, NCI-H1975 cells, CTG, 3 days; for A-431/NCI-H1975 Selectivity: ratio of A-431 IC50 to NCI-H1975 IC50
In short: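 NCI-H1975 cells with viability above 90% by trypan blue were seeded at 90 μL per well in black 96-well plates and incubated overnight at 37° C., 5% CO2. Compounds were added at nine concentrations in triplicate, and viability was measured with CellTiter-Glo luminescence on EnVision. IC50 came from non-linear S-curve fitting in GraphPad Prism 5.0.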

[2] = tested on: PC-9; assay: as above; type: cell-based; conditions: Homo sapiens, PC-9, 72 h, PC-9 cells, 3 days
In short: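 Cells in log-phase growth (viability above 90% by trypan blue) were seeded at 90 μL per well in black-walled, clear-bottom 96-well plates and incubated overnight at 37° C., 5% CO2. A T0 plate was read the next day. Test compounds were added at nine concentrations in triplicate with a solvent control. Viability was measured by CellTiter-Glo luminescence on EnVision, and IC50 came from non-linear S-curve fitting in GraphPad Prism 5.0.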

[3] = tested on: A-431; assay: as above; type: cell-based; conditions: Homo sapiens, A-431, 72 h, A-431 cells, 3 days
In short: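 IC50 values come from sigmoidal dose-response fits of percent survival, measured by CellTiter-Glo luminescence after 3 days' culture with compound. Nine-point, threefold series in triplicate, starting at 30 μM for A-431 and at 1.111 μM for NCI-H1975 and PC-9.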

[4] = biological target: T1, P-gp (Homo sapiens, UniProt P08183); assay: P-gp substrate evaluation experiment (MDCKII-MDR1 Transwell drug penetration test); type: in vitro ADME; conditions: dog, MDCK-MDR1, pH 7.4; read-out: ER (Efflux Ratio)
T1 construct: expressed in transfected cells; host or cells: MDCKII-MDR1 (MDCKII canine kidney cells expressing MDR1)
T1 sequence (P08183 whole entry): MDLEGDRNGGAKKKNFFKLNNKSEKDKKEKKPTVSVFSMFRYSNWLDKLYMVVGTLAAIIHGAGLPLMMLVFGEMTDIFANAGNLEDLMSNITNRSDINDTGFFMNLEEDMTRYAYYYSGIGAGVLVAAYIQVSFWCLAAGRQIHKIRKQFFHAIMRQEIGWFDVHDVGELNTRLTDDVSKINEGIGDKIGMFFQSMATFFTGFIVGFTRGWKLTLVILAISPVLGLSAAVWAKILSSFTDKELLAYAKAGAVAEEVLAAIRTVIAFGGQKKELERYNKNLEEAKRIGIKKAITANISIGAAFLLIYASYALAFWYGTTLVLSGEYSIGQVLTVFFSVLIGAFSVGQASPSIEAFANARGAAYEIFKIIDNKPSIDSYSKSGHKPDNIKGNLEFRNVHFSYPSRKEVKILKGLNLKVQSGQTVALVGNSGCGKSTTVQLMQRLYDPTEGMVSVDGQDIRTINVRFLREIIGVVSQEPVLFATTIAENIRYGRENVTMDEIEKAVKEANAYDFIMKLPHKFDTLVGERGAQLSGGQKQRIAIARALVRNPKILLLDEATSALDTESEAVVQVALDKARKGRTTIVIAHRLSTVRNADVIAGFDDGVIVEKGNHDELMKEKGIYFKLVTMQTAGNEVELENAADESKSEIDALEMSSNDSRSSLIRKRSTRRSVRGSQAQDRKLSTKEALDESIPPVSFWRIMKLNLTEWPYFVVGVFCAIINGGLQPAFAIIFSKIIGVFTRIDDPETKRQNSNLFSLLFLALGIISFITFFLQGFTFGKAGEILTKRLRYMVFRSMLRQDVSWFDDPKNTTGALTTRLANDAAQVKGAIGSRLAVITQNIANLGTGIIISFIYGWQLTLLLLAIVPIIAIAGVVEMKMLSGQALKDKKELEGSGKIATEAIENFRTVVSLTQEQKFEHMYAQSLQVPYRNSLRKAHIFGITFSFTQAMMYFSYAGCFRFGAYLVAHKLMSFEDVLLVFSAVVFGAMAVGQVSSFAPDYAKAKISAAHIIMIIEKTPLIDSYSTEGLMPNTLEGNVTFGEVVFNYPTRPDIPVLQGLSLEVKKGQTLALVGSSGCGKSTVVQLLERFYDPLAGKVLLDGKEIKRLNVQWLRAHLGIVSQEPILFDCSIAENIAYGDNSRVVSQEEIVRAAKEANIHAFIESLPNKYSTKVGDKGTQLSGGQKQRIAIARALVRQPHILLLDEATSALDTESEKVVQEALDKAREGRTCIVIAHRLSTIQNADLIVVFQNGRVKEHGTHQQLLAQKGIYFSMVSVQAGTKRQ
Procedure: P-gp Substrate Evaluation Experiment
Cell Culture • 1) High glucose DMEM medium containing L-glutamine was used and 10% fetal bovine serum, 0.1 mg/mL streptomycin and 0.6 mg/mL penicillin were added. • 2) MDCKII-MDR1 was cultured in a T-75 cell culture bottle. The incubator was set at the condition of 37° C., 5% CO2 and 95% relative humidity. Cells could be inoculated in Transwell when the cell confluence reached 70-90%. • 3) Before cell plant, 50 μL cell culture medium was added to each well in the upper chamber of the Transwell, and […] cell culture medium was added to the lower chamber of the Transwell.
Inoculation of MDCKII-MDR1 Cells • 1) Cell suspension was added to the upper chamber of the 96-well Transwell plate with […] each well, and the final inoculation density was 5.45×10^5 cells/cm^2. • 2) The medium was changed 48 hours after inoculation, the culture was carried out for 4-7 days, and the medium was changed every other day.
Evaluation of Cell Monolayer Integrity • 1) After 4-7 days of culture, MDCKII-MDR1 and MDKII should merge and differentiate completely. At this time, they could be applied to penetration test. • 2) The resistance of cell monolayer was measured by a resistance meter (Millipore, USA) and the resistance of each well was recorded. • 3) After finishing the detection, the Transwell plate was put back into the incubator. • 4) Resistance value was calculated: Resistance measured (ohms)×layer area (cm^2)=TEER value (ohm·cm^2)
If TEER value was less than 42 ohms·cm^2, the well can not be used for penetration testing.
Drug Penetration Test • 1) The MDCKII-MDR1 Transwell plate was taken out from the incubator. The cell monolayer was rinsed with HBSS buffer (25 mM HEPES, pH 7.4) twice and incubated for 30 minutes at 37° C. • 2) The transport rate of compounds from the top to the bottom was determined. […] 70 μL supernatant was drawn, diluted with equal volume of water and then subjected to LC-MS/MS analysis. All samples were prepared in three parallel ways. • 6) The cell monolayer integrity after 2-hour incubation was evaluated by leakage of fluorescent yellow, HBSS (25 mM HEPES, pH 7.4) was used to dilute the stock solution of fluorescent yellow till the final concentration was 100 μM. 100 μL fluorescent yellow solution was added to each well in the upper chamber of the Transwell plate and 300 μL HBSS (25 mM HEPES, pH 7.4) was added to each well in the lower chamber of the Transwell plate. After incubation at 37° C. for 30 minutes, 80 μL solution was drawn respectively from each well in the upper and lower chamber to a new 96-well plate. The fluorescence was determined at 485 nm as excitation wavelength and 530 nm as emission wavelength by using a microplate reader.
Data calculation was carried out through Excel, the apparent permeability index (Papp, cm/s) of compounds was calculated through the formula shown as follow: […]
wherein, the membrane area in the formula is the membrane area of Transwell-96 plate (0.143 cm^2); the unit of incubation time is second (s).
Efflux ratio was calculated through the formula shown as follow: […]

SMILES	IC50 [1] [nM]	A-431/NCI-H1975 Selectivity [1]	IC50 [2] [nM]	IC50 [3] [nM]	efflux ratio at 2 h [4]
C=CC(=O)Nc1cc(Nc2cc(-c3ccc4c(cnn4C)c3)ncn2)c(OC)cc1N(C)C1CCN(C2CCN(C)CC2)CC1 [compound 70]	17.6	66.1	14.7	1160	41.4
C=CC(=O)Nc1cc(Nc2cc(-c3ccc4c(cnn4C)c3)ncn2)c(OC)cc1N1CCC(N2C[C@@H](C)N(C)[C@@H](C)C2)CC1 [compound 100]	5.7	114.7	15.3	654	20
C=CC(=O)Nc1cc(Nc2cc(-c3ccc4c(cnn4C)c3)ncn2)c(OC)cc1N1CCN(CCOC)CC1 [compound 99]	9.8	90.4	43.2	886	1.54
C=CC(=O)Nc1cc(Nc2cc(-c3ccc4cnn(C)c4c3)ncn2)c(OC)cc1N(C)CCN(C)CC [compound 180]	25.1	35.6	3.8	894	3.07
C=CC(=O)Nc1cc(Nc2cc(-c3ccc4cnn(C)c4c3)ncn2)c(OC)cc1N1CCC(N2CCCC2)CC1 [compound 158]	9.4	72.4	4.9	680	15.3
C=CC(=O)Nc1cc(Nc2cc(-c3ccc4c(cnn4C)c3)ncn2)c(OC)cc1N1CCC(N2CC(OC)C2)CC1 [compound 206]	8.1	95.4	12.1	773	5.87
C=CC(=O)Nc1cc(Nc2cc(-c3ccc4c(cnn4CC)c3)ncn2)c(OC)cc1N1CCN(CCN(C)C)CC1 [compound 116]	9.1	71.9	8.2	654	67.9
C=CC(=O)Nc1cc(Nc2cc(-c3ccc4c(cnn4C)c3)ncn2)c(OC)cc1N1CCC(N2CCCCC2)CC1 [compound 144]	6.8	84.1	16.4	572	11.6
C=CC(=O)Nc1cc(Nc2cc(-c3ccc4c(cnn4C)c3)ncn2)c(OC)cc1N(C)CCN(C)C(C)C [compound 138]	16.8	56.3	12.3	946	2.17
C=CC(=O)Nc1cc(Nc2cc(-c3ccc4c(cnn4C)c3)ncn2)c(OC)cc1N1C[C@@H](C)N(C)[C@@H](C)C1 [compound 24]	11.8	90.1	8.1	1060	1.05
C=CC(=O)Nc1cc(Nc2cc(-c3ccc4cnn(C)c4c3)ncn2)c(OC)cc1N1CCC(N2CCC(OC)C2)CC1 (stereo not shown) [compound 203]	8.1	121.2	7.2	982	6.51
C=CC(=O)Nc1cc(Nc2cc(-c3ccc4cnn(C)c4c3)ncn2)c(OC)cc1N1CCC(N2CCCCC2)CC1 [compound 179]	16.2	60.7	2.9	984	17.1
C=CC(=O)Nc1cc(Nc2cc(-c3ccc4c(cnn4C)c3)ncn2)c(OC)cc1N1CCC(N2CCN(C3COC3)CC2)CC1 [compound 210]	10.4	94.5	11.7	983	11.4
C=CC(=O)Nc1cc(Nc2cc(-c3ccc4c(cnn4C)c3)ncn2)c(OC)cc1N1CCC(C2CCN(C)CC2)CC1 [compound 34]	26.3	74.1	10.7	1950	6.12
C=CC(=O)Nc1cc(Nc2cc(-c3ccc4ncsc4c3)ncn2)c(OC)cc1N1CCN(CCN(C)C)CC1 [compound 250]	12.5	81.9	12.7	1020	15.8
C=CC(=O)Nc1cc(Nc2cc(-c3ccc4c(cnn4C)c3)ncn2)c(OC)cc1N1CCC(N2CCN(C)CC2)CC1 [compound 33]	5.6	145.7	8.2	813	7.7
C=CC(=O)Nc1cc(Nc2cc(-c3ccc4c(cnn4C)c3)ncn2)c(OC)cc1N1CCC(N2C[C@@H](C)O[C@@H](C)C2)CC1 [compound 103]	8	81.0	19.2	648	2.28
C=CC(=O)Nc1cc(Nc2nccc(-c3ccc4c(cnn4C)c3)n2)c(OC)cc1N(C)CCN(C)C [compound 3]	4.1	120.3	7.9	491	5.87
C=CC(=O)Nc1cc(Nc2cc(-c3ccc4c(cnn4C)c3)ncn2)c(OC(F)F)cc1N1CCN(CCN(C)C)CC1 [compound 115]	5.3	100.5	9	533	41.9
C=CC(=O)Nc1cc(Nc2cc(-c3ccc4cnn(C)c4c3)ncn2)c(OC)cc1N1CCC(N2C[C@@H](C)O[C@@H](C)C2)CC1 [compound 155]	13.6	64.2	6	874	0.93
